Experimental findings from patent US10336707B2, “Heterocyclic derivatives modulating activity of certain protein kinases” (EUDENDRON S.R.L., priority 2014, dated 2019) are described below.

Where two headings read alike, the source gives them in different places.

Assay [1] relates to Karpas 299 lymphoma cell line positive for the oncogenic fusion protein NPM-ALK. Kind of assay: Tritiated thymidine uptake cell proliferation assay, Karpas 299. The class given is cell-based. The following applies: Homo sapiens. The method, then: (§1) Method: Tritiated Thymidine Uptake Cell Proliferation Assay
(§2) The following procedure was used with parent untransformed BaF3 cells, BaF3 cells transformed with the oncogenic fusion protein NPM/ALK, NPM/ALK positive SUDHL-1 cells, NPM/ALK positive SUPM2, ALK-negative HL60 cells, NPM/ALK positive KARPAS-299 cells. The parent untransformed BaF3 cells or Alk-negative HL60 cells are used as controls. Cells were seeded in U-bottomed 96-well plates at 10000 cells/well in a volume of 100 μl in supplemented medium. In the case of the parent untransformed BaF3 cells, the medium was supplemented with IL-3. Serial dilutions of inhibitors were added to the appropriate wells and volumes adjusted to 200 μl. Controls were treated with the equivalent volume of vehicle, DMSO, alone. Plates were incubated at 37° C. for 72 h. 3[H]-thymidine (1 μCi/well) was added for the last 16 h of incubation. Cells were harvested on to paper filters and 3[H]-thymidine incorporation was measured using a scintillation counter (1430 MicroBeta, Wallac, Turku, Finland). The 50% inhibitory concentration (IC50) was defined as the concentration of inhibitor, expressed in nanomolar units, that gave a 50% decrease in 3[H]-thymidine uptake compared with controls.
In Table 1 are listed results for selected examples of compounds of the invention, reported as percentage of inhibition of cell proliferation at 200 nM, obtained from cellular assays in Karpas 299 lymphoma cell line positive for the oncogenic fusion protein NPM-ALK.

In assay [2] the target is T1, BaF3 cell line transfected with the oncogenic fusion protein NPM-ALK and expressing the mutation L1196M (Homo sapiens, UniProt Q9UM73, L1196M, cells depend on it).
T1 construct: fused on or other part: P06748 (Nucleophosmin)
T1 sequence (Q9UM73 whole entry L1196M, the tested form may be a part): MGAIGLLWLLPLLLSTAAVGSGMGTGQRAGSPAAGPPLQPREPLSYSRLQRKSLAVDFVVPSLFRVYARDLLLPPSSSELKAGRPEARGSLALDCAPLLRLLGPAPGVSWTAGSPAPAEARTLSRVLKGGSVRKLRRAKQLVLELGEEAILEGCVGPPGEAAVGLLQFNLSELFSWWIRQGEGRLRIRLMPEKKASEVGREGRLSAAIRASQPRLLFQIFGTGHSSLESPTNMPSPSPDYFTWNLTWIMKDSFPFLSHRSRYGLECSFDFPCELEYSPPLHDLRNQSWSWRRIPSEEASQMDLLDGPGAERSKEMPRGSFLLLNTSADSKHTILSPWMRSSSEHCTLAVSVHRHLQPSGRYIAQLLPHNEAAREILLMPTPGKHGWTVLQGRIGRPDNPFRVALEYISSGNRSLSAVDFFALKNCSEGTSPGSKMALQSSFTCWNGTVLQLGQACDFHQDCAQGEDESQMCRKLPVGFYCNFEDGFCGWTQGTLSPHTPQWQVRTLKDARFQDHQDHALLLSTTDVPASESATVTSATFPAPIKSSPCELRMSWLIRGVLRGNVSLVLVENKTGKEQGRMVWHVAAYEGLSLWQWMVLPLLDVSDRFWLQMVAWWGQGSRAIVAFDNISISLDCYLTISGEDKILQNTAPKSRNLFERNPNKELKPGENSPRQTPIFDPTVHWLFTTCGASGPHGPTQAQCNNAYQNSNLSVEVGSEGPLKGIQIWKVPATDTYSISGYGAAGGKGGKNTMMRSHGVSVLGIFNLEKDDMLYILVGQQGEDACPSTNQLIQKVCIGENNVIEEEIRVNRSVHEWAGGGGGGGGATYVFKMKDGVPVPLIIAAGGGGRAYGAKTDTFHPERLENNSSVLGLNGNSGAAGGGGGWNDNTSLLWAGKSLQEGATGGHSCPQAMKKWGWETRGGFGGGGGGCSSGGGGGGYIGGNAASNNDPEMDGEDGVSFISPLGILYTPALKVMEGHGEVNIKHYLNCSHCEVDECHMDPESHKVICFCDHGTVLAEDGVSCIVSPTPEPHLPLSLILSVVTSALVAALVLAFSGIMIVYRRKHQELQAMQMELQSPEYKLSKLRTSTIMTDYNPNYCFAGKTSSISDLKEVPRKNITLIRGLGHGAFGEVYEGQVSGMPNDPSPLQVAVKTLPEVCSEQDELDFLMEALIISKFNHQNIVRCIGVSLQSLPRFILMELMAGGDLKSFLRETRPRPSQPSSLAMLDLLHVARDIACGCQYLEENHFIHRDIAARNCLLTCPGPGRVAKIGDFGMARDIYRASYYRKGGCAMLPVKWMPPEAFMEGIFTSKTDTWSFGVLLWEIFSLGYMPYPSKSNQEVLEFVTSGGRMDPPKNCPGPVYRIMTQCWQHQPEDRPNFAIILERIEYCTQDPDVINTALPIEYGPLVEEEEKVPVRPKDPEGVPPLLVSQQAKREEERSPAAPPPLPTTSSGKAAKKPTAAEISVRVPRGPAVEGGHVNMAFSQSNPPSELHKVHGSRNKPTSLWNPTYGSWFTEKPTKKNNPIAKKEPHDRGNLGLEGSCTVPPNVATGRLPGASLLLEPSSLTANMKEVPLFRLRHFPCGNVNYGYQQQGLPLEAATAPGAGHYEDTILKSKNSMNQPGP
The experiment in a line: Tritiated thymidine uptake cell proliferation assay, BaF3 NPM-ALK L1196M. To be noted: for GI50: averaged IC50 values of cell proliferation inhibition, class letters, read-out: IC50 BaF3 NPM-ALK L1196M cells; for % Inhibition BaF3 NPM-ALK L1196M cells: percentage of inhibition of cell proliferation at 200 nM. The class given is cell-based, murine. The method, then: as §1, §2
In Table 2 are listed results for selected examples of compounds of the invention, reported as percentage of inhibition of cell proliferation at 200 nM, obtained from cellular assays in BaF3 cell line transfected with the oncogenic fusion protein NPM-ALK and expressing the mutation L1196M.
In Table 3 are listed averaged IC50 values of cell proliferation inhibition for selected examples of compounds of the present invention, obtained from cellular assays in BaF3 cell line transfected with the oncogenic fusion protein NPM-ALK and expressing the mutation L1196M. The letter “A” designates an IC50 value between 1 nM and 50 nM, the letter “B” designates an IC50 value between 50 nM and 100 nM, the letter “C” designates an IC50 value between 100 and 500 nM.

The mark [3] stands for this setting: KARPAS-299, percentage of inhibition of cell proliferation at 200 nM, read-out: % Inhibition Karpas 299 cells.
[4] abbreviates: KARPAS-299, read-out: % Inhibition Karpas 299 cells.

Regarding `CN1CCN(c2ccc(C(=O)Nc3n[nH]c4cc(-c5cnc6[nH]ccc6c5)c(Cc5cc(F)cc(F)c5)cc34)c(NC3CCOCC3)c2)CC1` [Example 29, N-[5-[(3,5-difluorophenyl)methyl]-6-(1H-pyrrolo[2,3-b]pyridin-5-yl)-1H-indazol-3-yl]-4-(4-methylpiperazin-1-yl)-2-(tetrahydropyran-4-ylamino)benzamide], the inhibition – broadly, the share of the control response that was lost under treatment – at 0.2 µM in assay [1] (setting [3]) is 100%. For the same molecule, in assay [2], the GI50 was 50 to 100 nM and the “% Inhibition BaF3 NPM-ALK L1196M cells” value was 98%.

With `CN1CCN(c2ccc(C(=O)Nc3n[nH]c4cc(-c5ccc(O)cc5)c(Cc5cc(F)cc(F)c5)cc34)cc2)CC1` [Example 33, N-[5-[(3,5-difluorophenyl)methyl]-6-(4-hydroxyphenyl)-1H-indazol-3-yl]-4-(4-methylpiperazin-1-yl)benzamide], the inhibition at 0.2 µM in assay [1] (setting [4]) worked out at 100%. Besides, in assay [2], the GI50 fell in the range of 1 to 50 nM and the “% Inhibition BaF3 NPM-ALK L1196M cells” value came out at 99%.

Take `Cc1cc(O)ccc1-c1cc2[nH]nc(NC(=O)c3ccc(N4CCN(C)CC4)cc3)c2cc1Cc1cc(F)cc(F)c1` [Example 34, N-[5-[(3,5-difluorophenyl)methyl]-6-(4-hydroxy-2-methyl-phenyl)-1H-indazol-3-yl]-4-(4-methylpiperazin-1-yl)benzamide]: the inhibition at 0.2 µM in assay [1] (setting [3]) amounted to 100%. In addition, in assay [2], the GI50 fell in the range of 1 to 50 nM and the “% Inhibition BaF3 NPM-ALK L1196M cells” value is recorded as 100%.

In the case of `CN1CCN(c2ccc(C(=O)Nc3n[nH]c4cc(-c5ccc6[nH]ncc6c5)c(Cc5cc(F)cc(F)c5)cc34)cc2)CC1` [Example 35, N-[5-[(3,5-difluorophenyl)methyl]-6-(1H-indazol-5-yl)-1H-indazol-3-yl]-4-(4-methylpiperazin-1-yl)benzamide], in assay [1] (setting [3]), the inhibition at 0.2 µM was 100%. For the same molecule, in assay [2], the GI50 was 50 to 100 nM and the “% Inhibition BaF3 NPM-ALK L1196M cells” value stood at 96%.

On to `CN1CCN(c2ccc(C(=O)Nc3n[nH]c4cc(-c5ccc(O)cc5)c(Cc5cccc(F)c5)cc34)c(NC3CCOCC3)c2)CC1` [Example 38, N-[5-[(3-fluorophenyl)methyl]-6-(4-hydroxyphenyl)-1H-indazol-3-yl]-4-(4-methylpiperazin-1-yl)-2-(tetrahydropyran-4-ylamino)benzamide], for which the inhibition at 0.2 µM in assay [1] (setting [4]) is 100%. For the same molecule, in assay [2], the GI50 was 1 to 50 nM and the “% Inhibition BaF3 NPM-ALK L1196M cells” value amounted to 100%.

On to `COCCNc1cc(N2CCN(C)CC2)ccc1C(=O)Nc1n[nH]c2cc(-c3ccc(O)c(F)c3)c(Cc3cccc(F)c3)cc12` [Example 42, N-[6-(3-fluoro-4-hydroxy-phenyl)-5-[(3-fluorophenyl)methyl]-1H-indazol-3-yl]-2-(2-methoxyethylamino)-4-(4-methylpiperazin-1-yl)benzamide], for which, in assay [1] (setting [4]), the inhibition at 0.2 µM is 100%. Moreover, in assay [2], the GI50 was in the range of 50 to 100 nM and the “% Inhibition BaF3 NPM-ALK L1196M cells” value stood at 93%.
